This is an account of results in patent US20240082296A1, “TREATMENT OF MUSCLE ATROPHY USING DEXTRAN SULFATE” (TX MEDIC AB, priority 2020, published 2024).

The test system of assay [1] is patients with ALS. The experiment in a line: clinical observation of muscle function (ALSFRS-R) in ALS patients (Example 2). It is filed as in vivo, human. The settings on record: during the five-week treatment period; 1 mg/kg s.c. weekly. On the procedure: (§1) A clinical trial in the form of a Phase IIa, single-center, open label, single-arm study where the safety, tolerability and possible efficacy of subcutaneously administered dextran sulfate was evaluated in patients with ALS of intermediate progression rate. The clinical trial was conducted at the Sahlgrenska University Hospital, Gothenburg, Sweden and was overseen and approved by the Ethics Committee of the University of Gothenburg and by the Swedish Medical Products Agency.
(§2) Dextran sulfate (Tikomed AB, Viken, Sweden, WO 2016/076780) was administered at 1 mg/kg by […] subcutaneous injection once a week for five weeks to 13 human patients suffering from ALS.
ALSFRS-R was assessed pre-treatment and weekly thereafter for the 5 treatment weeks and for the visits at the follow-up period.
The biochemical evidence of reduced muscle degeneration supports the clinical observations of improved muscle function. For example, in the ALSFRS-R, functions mediated by cervical, trunk, lumbosacral, and respiratory muscles are each assessed by 3 items and scores in these categories show close agreement with objective measures of muscle strength.

Assay [2] deals with patients with ALS. The experiment in a line: Phase IIa trial in ALS patients: serum myoglobin and creatine kinase (Example 2). It is filed as in vivo, human. On the procedure:
as §1, §2
Blood samples were drawn at defined study intervals by a venous catheter into vacutainer tubes. Laboratory analyses of blood plasma were performed immediately after collection by the Clinical Chemistry Laboratory at the Sahlgrenska University Hospital.

Consider dextran sulfate, for which the “severe bulbar paresis in two patients” value in the assay on patients with ALS [1] is “almost complete resolution”. Besides, in the assay on patients with ALS [2] (after 4 weeks), the “reduction in serum creatine kinase levels” value is reported as 13.3%. The “reduction in serum myoglobin levels” value with patients with ALS [2] (after 4 weeks vs Day 1) turned out to be 30%. The substance also yielded a serum myoglobin levels with patients with ALS [2] (after 4 weeks, 1 mg/kg s.c. once a week, Day 1: 133.92±126.28, p=0.021) of 103.69 ± 72.16 µg/L. The “serum creatine kinase levels” value in the assay with patients with ALS [2] (after 4 weeks, 1 mg/kg s.c. once a week, before 7.15±5.74, p<0.05) turned out to be 6.2±5.08 μkat/L.
